Measured values taken from US4981792A, “Immunosuppressant compound” (Merck & Co., Inc., priority 1988, dated 1991).
Values joined by “and” are separate entries in the source; they are usually repeats but may differ in a detail not shown here. Equal entries are not always repeated. “Also recorded” adds a separate entry of the source. Where two headings read alike, the source gives them in different places.

Assays:
mouse T lymphocytes = test: T-cell proliferation assay (ionomycin plus PMA induced, tritiated thymidine uptake); type: cell-based, mouse (C57Bl/6)
Protocol: The principle of this assay is to measure the proliferation of mouse T lymphocytes stimulated with the combination of ionomycin plus PMA. A positive sample in this assay will inhibit T-cell proliferation, as indicated by reduced tritiated thymidine uptake.
Purified demethomycin, as prepared by HPLC above, was dissolved in absolute ethanol at 1 mg/ml.
Spleens from C57Bl/6 mice were taken under sterile conditions and gently dissociated in ice-cold RPMI 1640 culture medium (GIBCO, Grand Island, N.Y.) supplemented with 10% heat-inactivated fetal calf serum (GIBCO). Cells were pelleted by centrifugation at 1500 rpm for 8 minutes. Contaminating red cells were removed by treating the pellet with ammonium chloride lysing buffer (GIBCO) for 2 minutes at 4° C. Cold medium was added and cells were again centrifuged at 1500 rpm for 8 minutes. T lymphocytes were then isolated by separation of the cell suspension on nylon wool columns as follows: Nylon wool columns were prepared by packing approximately 4 grams of washed and dried nylon wool into 20 ml plastic syringes. The columns were sterilized by autoclaving at 250° F. for 30 minutes. Nylon wool columns were wetted with warm (37° C.) culture medium and rinsed with the same medium. Washed spleen cells resuspended in warm medium were slowly applied to the nylon wool. The columns were then incubated in an upright position at 37° C. for 1 hour. Non-adherent T lymphocytes were eluted from the columns with warm culture medium and the cell suspensions were spun as above.
Purified T lymphocytes were resuspended at 2.5×10^5 cells/ml in complete culture medium composed of RPMI 1640 medium with 10% neat-inactivated fetal calf serum, […], 1 mM sodium pyruvate, 2×10^-5 M 2-mercaptoethanol and 50 μg/ml gentamycin. Ionomycin was added at 250 ng/ml and PMA at 10 ng/ml. The cell suspension was immediately distributed into 96 well flat-bottom microculture plates (Costar) at 200 μl/well. The control, being the medium without test drug, and various below-indicated dilutions of the sample (above-describedpurified demethomycin; to be tested were then added in triplicate wells at 20 μl/well. L-679,934 was used as a standard. The culture plates were then incubated at 37° C. in a humidified atmosphere of 5% CO2 -95% air for 44 hours. The proliferation of T lymphocytes was assessed by measurement of tritiated thymidine incorporation. After 44 hours of culturing, the cells were pulse-labelled with 2 μCi/well of tritiated thymidine (NEN, Cambridge, MA). After another 4 hours of incubation, cultures were harvested on glass fiber filters using a multiple sample narvester. Radioactivity of filter discs corresponding to individual wells was measured by standard liquid scintillation counting methods (Betacounter). Mean counts per minute of replicate wells were calculated and the results expressed as percent inhibition of tritiated thymidine uptake (proliferation) as follows: [formula]
1. Mouse T cell cultures were pulsed with ^3 Hthymidine for 4 hours
prior to harvesting at 48 hours.

[1] = reputed; immunosuppressant, vs cyclosporin; cited from earlier work

**Q.** For `C=CC[C@@H]1/C=C(\C)C[C@H](C)C[C@H](OC)[C@H]2O[C@@](O)(C(=O)C(=O)N3CCCC[C@H]3C(=O)O[C@H](/C(C)=C/[C@@H]3CC[C@@H](O)[C@H](OC)C3)[C@H](C)[C@@H](O)CC1=O)[C@H](C)C[C@@H]2OC` [L-679,934, reference compound], which inhibition at 0.01 µg/mL (mouse T lymphocytes; Mus musculus, T-lymphocyte, read-out: % inhibition of T-cell proliferation (standard)) is on record?
**A.** 99%

**Q.** And the “effectiveness relative to cyclosporin” value [1]?
**A.** 100 times

**Q.** For `C=CC[C@@H]1/C=C(\C)C[C@H](C)C[C@H](OC)[C@H]2O[C@@](O)(C(=O)C(=O)N3CCCC[C@H]3C(=O)O[C@H](/C(C)=C/[C@@H]3CC[C@@H](O)[C@H](O)C3)[C@H](C)[C@@H](O)CC1=O)[C@H](C)C[C@@H]2OC` [demethomycin, 31-desmethoxy-31-hydroxy-L-679,934], which “Reversal of inhibition of T-cell proliferation by recombinant IL2” value (mouse T lymphocytes; 50 μ/ml of IL2 (recombinant IL2) added at initiation of culture) is on record?
**A.** reversed

**Q.** And the inhibition at 0.00029 µg/mL (mouse T lymphocytes; Mus musculus, T-lymphocyte, 0.29 ng/ml, harvest at 48 hours)?
**A.** 0%

**Q.** What about the inhibition at 0.00044 µg/mL (mouse T lymphocytes; Mus musculus, T-lymphocyte, 0.44 ng/ml, harvest at 48 hours) of the same molecule?
**A.** 0%

**Q.** What about the inhibition at 0.00066 µg/mL (mouse T lymphocytes; Mus musculus, T-lymphocyte, 0.66 ng/ml, harvest at 48 hours) of the same molecule?
**A.** 36.8%

**Q.** And the inhibition at 0.00099 µg/mL (mouse T lymphocytes; Mus musculus, T-lymphocyte, 0.99 ng/ml, harvest at 48 hours)?
**A.** 67.1%

**Q.** What about the inhibition at 0.0015 µg/mL (mouse T lymphocytes; Mus musculus, T-lymphocyte, 1.5 ng/ml, harvest at 48 hours) of the same molecule?
**A.** 80.5%

**Q.** What about the inhibition at 0.0022 µg/mL (mouse T lymphocytes; Mus musculus, T-lymphocyte, 2.2 ng/ml, harvest at 48 hours) of the same molecule?
**A.** 92.9%

**Q.** What about the inhibition at 0.0033 µg/mL (mouse T lymphocytes; Mus musculus, T-lymphocyte, 3.3 ng/ml, harvest at 48 hours) of the same molecule?
**A.** 97.2%

**Q.** And the inhibition at 0.005 µg/mL (mouse T lymphocytes; Mus musculus, T-lymphocyte, 5 ng/ml, harvest at 48 hours)?
**A.** 98.1%

**Q.** What about the IC50 (mouse T lymphocytes; Mus musculus, T-lymphocyte, T-cell proliferation, harvest at 48 hours, read-out: IC50) of the same molecule?
**A.** 0.00086 µg/mL and 1.09 nM

**Q.** And the IC50 (mouse T lymphocytes; Mus musculus, T-lymphocyte, generally in the range, read-out: IC50, general range)?
**A.** 0.6 to 1.2 nM

**Q.** What about the “immunosuppressive activity / inhibition of T-cell activation (qualitative)” value (mouse T lymphocytes; T-cell proliferation assay) of the same molecule?
**A.** positive inhibition of T-cell activation; also recorded: positive immunosuppressive activity
